Experimental data reported in patent US6358688B1, “Immortalized human middle ear epithelial cell lines” (House Ear Institute, priority 1999, dated 2002).

Tests used:
[1] = system: primary human middle ear epithelial cells; assay: G418 selection of cultured cells; type: cell-based; conditions: 2 and 7 days post G418 addition
Procedure: (§1) Passage 3 human middle ear epithelial cell cultures (at 50-70% confluence) were infected with 1 ml of virus stock diluted in 9 ml of fresh SFM-HG for 48 hours. The virus was then removed and the medium was replaced with fresh SFM-HG. The cells were allowed to proliferate and once at 70% confluence, they were trypsinized and re-seeded in fresh SFM-HG medium containing G418 (Gibco-BRL, Gaithersburg, […].) at a concentration of 0.4 mg/ml.
(§2) Cells were photographed prior to selection, at 2 days and at 7 days post G418 addition (panels, a, b and c, respectively). […]

[2] = system: HPV-transformed human middle ear epithelial cell line HMEEC-1; assay: G418 selection of cultured cells; type: cell-based; conditions: G418 0.4 mg/ml, 2 and 7 days post addition
Procedure: as §1, §2

MUC2 mRNA = assay: RT-PCR of mucin mRNA expression after retinoic acid; type: cell-based, human; conditions: primary cultures
Procedure: Polymerase chain reaction (PCR) assays were performed essentially following the package insert of the commercially available Gene-Amp kit (document No. 55635-6/89, available from Perkin-Elmer/Cetus, Emeryville, Calif.). The following reagents were mixed in a 0.5 mL polypropylene tube and used in performing PCR:
After mixing, the reaction mixture was overlayed with a drop of mineral oil to 30 cycles of PCR, with the following cycle profile: 30 second denaturation, 1 minute annealing and 2 minute extension. The PCR products were run on a 1.2% TAE agarose gel.
Expression of various genes was confirmed using the following PCR primers specific for: […]

MEK1/2 (MAPK kinase) = assay: Assay for MEK (phospho-MEK1/2 antibody detection); type: cell-based, human; conditions: HMEEC-1 cells treated for 5, 15 and 45 minutes
Procedure: Cells were treated with IL-1 alpha for 5, 15 and 45 minutes. The MEK assay was done according to the manufacturer's protocol (PhosphoPlus, MEK1/2 Antibody Kit; New England BioLabs, Beverly, Mass.). Antibodies specific to the phosphorylated (phospho-MEK1/2) and unphosphorylated (MEK1/2) MEK protein were used to distinguish between the phosphorylated and unphosphorylated forms of the protein.

Compound: CN[C@@H]1[C@@H](O)[C@@H](O[C@@H]2[C@@H](O)[C@H](O[C@H]3O[C@H]([C@@H](C)O)[C@@H](O)[C@H](O)[C@H]3N)[C@@H](N)C[C@H]2N)OC[C@]1(C)O [G418]
- Response of cells to G418 [1]: sensitivity
- Response of cells to G418 [2]: resistance

Compound: CC1=C(/C=C/C(C)=C/C=C/C(C)=C/C(=O)O)C(C)(C)CCC1 [Retinoic acid]
- MUC2 expression in response to RA (MUC2 mRNA): no effect

Compound: IL-1 alpha: cytokine used to treat HMEEC-1 cells
- Activation (phosphorylation) of MEK1/2 (MEK1/2 (MAPK kinase)): activates
